The values that follow come from patent US20140242012A1, “METHODS FOR TREATING UV-DAMAGED SKIN AND SCC TUMORS AND FOR REMOVING TATTOOS WITH TOPICAL INGENOL MEBUTATE” (LEO Laboratories Limited, priority 2011, published 2014).

One experiment has as its system UVB-induced skin lesions. Nature of the experiment: Field treatment of ~10 cm2 UVB-damaged skin: development of UVB-induced lesions. Type of experiment: in vivo, SKH1/hr mice. The source says:
Outbred SKH1/hr mice were irradiated 3 times per week for 10-11 weeks under 6×TL-12/40 W fluorescent tubes (Phillips, Amsterdam, The Netherlands) mounted in parallel. The lamps emit 54% UVB (280-315 nm) and 46% UVA (315-400 nm) (Rebel et al., 2001). During the irradiation mice were segregated into individual boxes (11.5×20 cm) with a piece of 0.125 mm cellulose acetate placed over the box to prevent any UVC reaching the mice. The mice were 26 cm below the UV lamps. Under these conditions the mice received 1.25 times the minimal erythemal dose (MED) of UVB at each exposure, with the total UVB dose being 37.5 MED. One MED was defined as the minimal UVB dose, which caused erythema-oedema evident by visual examination. […] Such cessation was usually only necessary after the initial 2-3 doses of UVB, as mice become resistant to UVB-induced erythema with repeated exposures.
One to three days after discontinuation of UVB irradiation, a ˜10 cm2 rectangular area located centrally on the dorsa and previously demarcated by a tattoo were treated topically, daily for 2 days with 100 μl of 0.05% ingenol mebutate gel or 100 μl of placebo gel. An untreated group served as an additional control. The mice were monitored weekly for the development of lesions both within and outside the treatment areas. […] The number and size of lesions was monitored over time. All visible lesions were counted. […]

The test system of another experiment is B16. The conditions noted are these: Ogbourne et al. 2004; cited from earlier work.

Turning to `C/C=C(/C)C(=O)O[C@H]1C(C)=C[C@]23C(=O)[C@@H](C=C(CO)[C@@H](O)[C@]12O)[C@H]1[C@@H](C[C@H]3C)C1(C)C` [ingenol mebutate], the “growth of individual lesions vs control and placebo” value in the experiment with UVB-induced skin lesions (lesions within the treatment areas) is reported as “no significant difference”. The “number of lesions outside the treatment area” value in the experiment with UVB-induced skin lesions (~10 cm2 area) is listed as “not significantly affected”. The LD90 in the experiment on B16 was 190 µM.
